# Measured values reported in PubChem BioAssay (NCI).
#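 1) Cells in 96-well plates. 2) Compound, 48 h, 5 concentrations. 3) Linear interpolation between surrounding doses. 4) Unreached endpoint = highest concentration. GI50 = concentration required for 50% inhibition of growth. At the TGI there is no net growth.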
# Legend:
# Experiment in all cases: growth of human tumour cells (NCI), 48 h
# [1] = system: NCI-H226 lung
# [2] = system: NCI-H460 lung
# [3] = system: SNB-75 CNS
# [4] = system: PC-3 prostate
# [5] = system: OVCAR-3 ovarian
# [6] = system: HT29 colon
# [7] = system: UO-31 renal
# [8] = system: OVCAR-5 ovarian
# [9] = system: LOX IMVI melanoma
# [10] = system: A549 NSCLC
# [11] = system: SR leukemia
# [12] = system: SK-MEL-2 melanoma
# [13] = system: HCT-15 colon
# [14] = system: HOP-62 NSCLC
# [15] = system: CCRF-CEM leukemia
# [16] = system: RPMI-8226 leukemia
# [17] = system: IGROV1 ovarian
# [18] = system: RXF 393 renal
# [19] = system: MDA-MB-435
# [20] = system: HOP-92 NSCLC
# [21] = system: UACC-257 melanoma
# [22] = system: U251 CNS
# [23] = system: SN12C renal
# [24] = system: OVCAR-4 ovarian
# [25] = system: CAKI-1 renal
# [26] = system: SF-539 CNS
# [27] = system: KM12 colon
# [28] = system: SK-MEL-5 melanoma
# [29] = system: SW-620 colon
# [30] = system: A498 renal
# [31] = system: TK-10 renal
# [32] = system: MALME-3M melanoma
# [33] = system: SK-MEL-28 melanoma
# [34] = system: COLO 205 colon
# [35] = system: HL-60(TB) leukemia
# [36] = system: EKVX NSCLC
# [37] = system: K-562 leukemia
# [38] = system: MOLT-4 leukemia
# [39] = system: ACHN renal
# [40] = system: BT-549 breast
# [41] = system: NCI/ADR-RES ovarian
# [42] = system: DU-145 prostate
# [43] = system: SNB-19 CNS
# [44] = system: 786-0 renal
# [45] = system: UACC-62 melanoma
# [46] = system: SF-295 CNS
# [47] = system: NCI-H522 lung
# [48] = system: MCF7 breast
# [49] = system: HCC-2998 colon
# [50] = system: MDA-MB-231 breast
# [51] = system: OVCAR-8 ovarian
# [52] = system: SK-OV-3 ovarian
# [53] = system: HCT-116 colon
# [54] = system: M14 melanoma
# [55] = system: T-47D breast
# [56] = system: SF-268 CNS
# [57] = system: HS 578T breast
# [58] = system: NCI-H23 lung
smiles,measurement,setting,value
NC(=O)c1cccc2c(N[C@H](CN3CCC3)c3ccc(Cl)c(C(F)(F)F)c3)ncnc12,GI50,[1],1990 nM
same,TGI,[1],16200 nM
same,GI50,[2],739 nM
same,TGI,[2],12400 nM
same,GI50,[3],50.6 nM
same,TGI,[3],918 nM
same,GI50,[4],638 nM
same,TGI,[4],12800 nM
same,GI50,[5],3300 nM
same,TGI,[5],16200 nM
same,GI50,[6],981 nM
same,TGI,[6],12100 nM
same,GI50,[7],306 nM
same,TGI,[7],4910 nM
same,GI50,[8],1770 nM
same,TGI,[8],13500 nM
same,GI50,[9],2730 nM
same,TGI,[9],14700 nM
same,GI50,[10],1470 nM
same,TGI,[10],12400 nM
same,GI50,[11],1350 nM
same,TGI,[11],6580 nM
same,GI50,[12],1960 nM
same,TGI,[12],9740 nM
same,GI50,[13],947 nM
same,TGI,[13],10700 nM
same,GI50,[14],964 nM
same,TGI,[14],14500 nM
same,GI50,[15],871 nM
same,TGI,[15],12000 nM
same,GI50,[16],2690 nM
same,TGI,[16],9060 nM
same,GI50,[17],98.9 nM
same,TGI,[17],2630 nM
same,GI50,[18],141 nM
same,TGI,[18],1400 nM
same,GI50,[19],1440 nM
same,TGI,[19],11300 nM
same,GI50,[20],140 nM
same,TGI,[20],2270 nM
same,GI50,[21],1220 nM
same,TGI,[21],5270 nM
same,GI50,[22],548 nM
same,TGI,[22],12100 nM
same,GI50,[23],2110 nM
same,TGI,[23],13900 nM
same,GI50,[24],3260 nM
same,TGI,[24],16600 nM
same,GI50,[25],232 nM
same,TGI,[25],3390 nM
same,GI50,[26],154 nM
same,TGI,[26],1710 nM
same,GI50,[27],885 nM
same,TGI,[27],13300 nM
same,GI50,[28],1700 nM
same,TGI,[28],3270 nM
same,GI50,[29],3430 nM
same,TGI,[29],16300 nM
same,GI50,[30],138 nM
same,TGI,[30],908 nM
same,GI50,[31],156 nM
same,TGI,[31],3340 nM
same,GI50,[32],399 nM
same,TGI,[32],1850 nM
same,GI50,[33],1180 nM
same,TGI,[33],4130 nM
same,GI50,[34],837 nM
same,TGI,[34],2660 nM
same,GI50,[35],2130 nM
same,TGI,[35],5640 nM
same,GI50,[36],878 nM
same,TGI,[36],10300 nM
same,GI50,[37],2530 nM
same,TGI,[37],10800 nM
same,GI50,[38],257 nM
same,TGI,[38],3460 nM
same,GI50,[39],1380 nM
same,TGI,[39],13500 nM
same,GI50,[40],657 nM
same,TGI,[40],3610 nM
same,GI50,[41],2520 nM
same,TGI,[41],14400 nM
same,GI50,[42],2240 nM
same,TGI,[42],16200 nM
same,GI50,[43],1190 nM
same,TGI,[43],11400 nM
same,GI50,[44],92.1 nM
same,TGI,[44],1760 nM
same,GI50,[45],1130 nM
same,TGI,[45],8620 nM
same,GI50,[46],293 nM
same,TGI,[46],2880 nM
same,GI50,[47],5100 nM
same,TGI,[47],20300 nM
same,GI50,[48],396 nM
same,TGI,[48],3750 nM
same,GI50,[49],1170 nM
same,TGI,[49],2880 nM
same,GI50,[50],2440 nM
same,TGI,[50],13700 nM
same,GI50,[51],4550 nM
same,TGI,[51],19200 nM
same,GI50,[52],493 nM
same,TGI,[52],4300 nM
same,GI50,[53],2320 nM
same,TGI,[53],11700 nM
same,GI50,[54],1470 nM
same,TGI,[54],3690 nM
same,GI50,[55],101 nM
same,TGI,[55],2470 nM
same,GI50,[56],1090 nM
same,TGI,[56],12900 nM
same,GI50,[57],191 nM
same,TGI,[57],2650 nM
same,GI50,[58],3080 nM
same,TGI,[58],17000 nM
